Where a name gives a salt, the structure may show the parent alone. Read-outs that look alike come from different tables or passages of the source.
How the values were obtained:
[1] = tested on: DLD-1 BRCA2(−/−) colorectal adenocarcinoma cells; assay: Cell viability assay (Cell Titer-Glo, 7 days), DLD-1 BRCA2(−/−); assay type: cell-based; details: Homo sapiens, 168 h, DLD-1 BRCA2(−/−) cells
Excerpt: (§1) In some embodiments, the biological assay measures the effects that compounds of the present disclosure may have on the viability of cells, e.g., the viability of cancer cells. In some embodiments, DLD-1 wild-type and DLD-1 BRCA2(−/−) colorectal adenocarcinoma cells, an isogenic pair of cell lines differing in the presence and absence, respectively, of both BRCA2 alleles, are used to measure the effect of the disclosed compounds on the viability of cancer cells. In some embodiments, the cells are harvested during the logarithmic growth period, counted, and seeded at a specified count in the wells of a 96- or 384-well cell culture plate. In some embodiments, after seeding, the cells are incubated, e.g., at 37° C., 5% CO2 overnight. In some embodiments, the cells are treated with compounds, e.g., with serially diluted test compounds at 8-11 concentrations within a desired concentration range, e.g., from 1 nM-10 μM, for the generation of dose-response curves. In some embodiments, the plate is further incubated, e.g., for another 3-7 days in a humidified incubator at 37° C. and 5% CO2. In some embodiments, cell viability is assessed by luminescence measurement after addition of Cell Titer-Glo reagent (Promega, Madison, Wis.) according to the manufacturer's instructions. In some embodiments, cell viability IC50 values are calculated using XLFit, equation 201: y=A+((B−A)/(1+((x/C)^D))), where A=bottom, B=top, C=IC50, and D=slope. In some embodiments, the effects of the test compounds on the viability of other cell lines such as MDA-MB-436, MDA-MB-231, SUM149PT, HCC1395, and UWB1.289 are determined in an analogous method.
(§2) Compounds of the present disclosure were tested for their effects on the viability of cancer cells. DLD-1 wild-type and DLD-1 BRCA2(−/−) colorectal adenocarcinoma cells, an isogenic pair of cell lines differing in the presence and absence, respectively, of both BRCA2 alleles, were used. The cells were harvested during the logarithmic growth period, counted, and seeded at 50 cells/well for DLD-1 wild-type and 200 cells/well for DLD-1 BRCA2(−/−) in a 384-well cell culture plate. After seeding, cells were incubated at 37° C., 5% CO2 overnight. Cells were treated with serially diluted test compounds at 10 concentrations (e.g., from 1.5 nM-30 μM) for generation of dose response curves, or at a single concentration. The plate was further incubated for another 7 days in a humidified incubator at 37° C. and 5% CO2. Cell viability was assessed by luminescence measurement after addition of Cell Titer-Glo reagent (Promega, Madison, Wis.) according to the manufacturer's instructions. Cell viability IC50 values were calculated using XLFit, equation 201. y=A+((B−A)/(1+((x/C)^D))), where A=bottom, B=top, C=IC50, and D=slope. IC50 values are shown in Table B and are presented in ranges, in which “+++”<300 nM, 300 nM≤“++”<3000 nM, and “+”≥3000 nM. Values for percent inhibition at 10 μM are also shown in Table B and are presented in ranges, in which “***”≥67%, 33%: “**”≤67%, and “*”<33%. Effects of the test compounds on the viability of other cell lines such as MDA-MB-436, MDA-MB-231, SUM149PT, HCC1395, and UWB1.289 are determined in an analogous method.

[2] = target: recombinant human PARP1 (Homo sapiens, UniProt P09874); assay: PARP1 fluorescence polarization binding assay; details: GST-tagged PARP1 20 nM, PARP1-FL probe 3 nM
Sequence of recombinant human PARP1 (P09874 whole entry): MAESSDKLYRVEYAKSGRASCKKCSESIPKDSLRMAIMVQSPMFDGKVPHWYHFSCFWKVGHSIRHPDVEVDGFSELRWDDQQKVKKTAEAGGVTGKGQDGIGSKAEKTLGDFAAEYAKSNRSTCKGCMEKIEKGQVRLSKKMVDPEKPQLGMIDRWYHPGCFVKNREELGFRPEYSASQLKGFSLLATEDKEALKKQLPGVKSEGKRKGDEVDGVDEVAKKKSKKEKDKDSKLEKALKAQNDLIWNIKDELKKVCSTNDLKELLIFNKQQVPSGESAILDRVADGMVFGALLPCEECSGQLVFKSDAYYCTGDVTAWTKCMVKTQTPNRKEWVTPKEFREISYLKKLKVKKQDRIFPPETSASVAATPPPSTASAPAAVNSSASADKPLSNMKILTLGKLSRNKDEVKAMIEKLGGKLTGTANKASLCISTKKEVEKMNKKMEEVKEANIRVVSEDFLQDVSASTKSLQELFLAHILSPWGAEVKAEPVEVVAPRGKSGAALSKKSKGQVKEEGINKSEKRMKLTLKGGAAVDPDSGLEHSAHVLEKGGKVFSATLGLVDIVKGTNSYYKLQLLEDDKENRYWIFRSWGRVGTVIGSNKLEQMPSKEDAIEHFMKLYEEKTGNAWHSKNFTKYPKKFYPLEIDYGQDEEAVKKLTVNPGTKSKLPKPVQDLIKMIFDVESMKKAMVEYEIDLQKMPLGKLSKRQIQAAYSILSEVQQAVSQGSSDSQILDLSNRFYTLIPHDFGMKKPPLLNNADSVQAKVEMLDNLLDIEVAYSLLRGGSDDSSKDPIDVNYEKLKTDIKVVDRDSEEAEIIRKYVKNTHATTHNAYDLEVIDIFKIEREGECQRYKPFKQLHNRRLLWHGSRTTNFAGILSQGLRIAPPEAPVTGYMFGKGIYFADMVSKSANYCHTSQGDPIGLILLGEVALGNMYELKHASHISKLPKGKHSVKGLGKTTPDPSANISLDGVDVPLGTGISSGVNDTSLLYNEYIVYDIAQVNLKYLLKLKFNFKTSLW
Experimental: In some embodiments, the biological assay is described in the Examples herein. In some embodiments, the biological assay measures PARP-1 binding by way of fluorescence polarization measurements. In some embodiments, binding of a test compound to recombinant human PARP-1 reduces the amount of binding of a fluorescent probe, and consequently reduces the detected level of fluorescence polarization. In some test compound stock solutions are prepared in a solvent, e.g., DMSO, and are serially diluted into a range of concentrations, e.g., 15 concentrations, 14 concentrations, 13 concentrations, 12 concentrations, 11 concentrations, 10 concentrations, 9 concentrations, 8 concentrations, 7 concentrations, 6 concentrations, or 5 concentrations, by a dilution factor, e.g., a 10-fold dilution factor, a 9-fold dilution factor, an 8-fold dilution factor, a 7-fold dilution factor, a 6-fold dilution factor, a 5-fold dilution factor, a 4-fold dilution factor, a 3-fold dilution factor, or a 2-fold dilution factor. In some embodiments, the serial dilutions, e.g., 100 nL of serial dilution, 90 nL of serial dilution, 80 nL of serial dilution, 70 nL of serial dilution, 60 nL of serial dilution, 50 nL of serial dilution, 30 nL of serial dilution, 20 nL of serial dilution, or 10 nL of serial dilution, are added to a multi-welled plate, e.g., a 1536-well plate, a 384-well plate, or a 96-well plate. In some embodiments, PARP-1, e.g., GST-tagged PARP-1, is diluted in assay buffer, e.g., 50 μL of assay buffer, 40 μL of assay buffer, e.g., 30 μL of assay buffer, 20 μL of assay buffer, 10 μL of assay buffer, or 5 μL of assay buffer, and is added to the plate. In some embodiments, the plate is centrifuged, e.g., at 1000 rpm for 1 min, and incubated, e.g., incubated for 30 minutes at room temperature (RT). In some embodiments, a fluorescent probe, e.g., 10 μL of 6 nM PARP1-FL (TOCRIS, Cat #6461), is diluted in an assay buffer and is added to the plate. In some embodiments, the final concentrations of PARP-1 and fluorescent probe are 20 nM and 3 nM, respectively, in a total volume of 20 μL. In some embodiments, the plate is centrifuged, e.g., at 1000 rpm for 1 minute, and the assay plate is incubated, e.g., for 4 h at RT. In some embodiments, the samples in each well are read using a plate reader, e.g., an Envision instrument using excitation=480 nm, and emission wavelength=FITC FP-P pol 535 nm & FITC FP-S pol 535 nm). In some embodiments, percent inhibition is calculated from mP values using Inhibition (%)=[1−(mPc−mPL)/(mPH−mPL)]×100%, where mPc, mPL, and mPH are the mP values of test compound, Low controls, and High controls, respectively. In some embodiments, binding IC50 values are calculated using XLFit (equation 201: y=A+((B−A)/(1+((x/C)^D))), where A=bottom, B=top, C=IC50, and D=slope) with a floating top and bottom for curves.
Compounds of the present disclosure were tested in a PARP1 fluorescence polarization binding assay at Pharmaron (Beijing, P.R. China). In this biochemical assay, binding of test compound to recombinant human PARP1 reduces the amount of binding of a fluorescent probe, and consequently reduces the detected level of fluorescence polarization. Test compound stock solutions were prepared in DMSO and then serially diluted into 10 concentrations by 3-fold dilution in a 384-well plate using a TECAN EVO200. Alternatively, a single concentration was prepared. 60 nL of each dilution was transferred to the plate using an Echo550 (Labcyte), and then 10 μL 40 nM GST-tagged PARP1 (BPS Bioscience, Cat #80501), diluted in assay buffer (50 mM Tris pH 8.0, 0.001% Triton X-100, 10 mM MgCl2, 150 mM NaCl), was added to the plate. After a centrifugation at 1000 rpm for 1 min, the assay plate was incubated for 30 min at RT. 10 μL 6 nM PARP1-FL (TOCRIS, Cat #6461), diluted using assay buffer, was then added to the plate. The final concentrations of PARP1 and PARP1-FL were 20 nM and 3 nM, respectively, in a total volume of 20 μL. […]

[3] = target: recombinant human PARP2 (Homo sapiens, UniProt Q9UGN5); assay: PARP2 fluorescence polarization binding assay; details: read-out: PARP2 % inh at 10 μM
Sequence of recombinant human PARP2 (Q9UGN5 whole entry): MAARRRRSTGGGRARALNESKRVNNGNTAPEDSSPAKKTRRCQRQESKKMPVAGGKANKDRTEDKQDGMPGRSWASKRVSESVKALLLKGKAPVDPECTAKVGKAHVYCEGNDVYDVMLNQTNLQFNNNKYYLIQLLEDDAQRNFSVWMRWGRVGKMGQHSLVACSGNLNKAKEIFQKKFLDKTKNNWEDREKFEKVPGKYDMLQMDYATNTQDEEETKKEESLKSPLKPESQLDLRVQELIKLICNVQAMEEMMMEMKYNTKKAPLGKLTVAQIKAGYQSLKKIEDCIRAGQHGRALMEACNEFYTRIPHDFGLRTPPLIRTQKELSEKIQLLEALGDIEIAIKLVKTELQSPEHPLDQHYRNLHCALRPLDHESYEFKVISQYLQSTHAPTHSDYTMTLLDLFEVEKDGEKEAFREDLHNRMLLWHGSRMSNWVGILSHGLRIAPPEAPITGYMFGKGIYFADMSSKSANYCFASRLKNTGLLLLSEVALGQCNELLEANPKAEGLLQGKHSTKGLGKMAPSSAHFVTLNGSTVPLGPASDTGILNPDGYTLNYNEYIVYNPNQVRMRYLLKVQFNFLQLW

[4] = tested on: DLD-1 wild-type colorectal adenocarcinoma cells; assay: Cell viability assay (Cell Titer-Glo, 7 days), DLD-1 wild-type; assay type: cell-based; details: Homo sapiens, 168 h, DLD-1 wild-type cells, read-out: DLD-1 wild-type % inh at 10 μM
Excerpt: as §1, §2

[5] = percent inhibition at 10 μM, fluorescence polarization, GST-tagged PARP2 20 nM, PARP1-FL probe 3 nM

IC50 [1] [nM] | IC50 [2] [nM] | inhibition at 10 µM [3, 5] [%] | SMILES | inhibition at 10 µM [4] [%] | inhibition at 10 µM [3] [%]
≥ 3000 | < 100 | < 33 | CCNC(=O)Nc1cc(CN2CCN(c3ccc(C(F)(F)F)cn3)CC2)ccn1 [Compound 273, 1-ethyl-3-(4-((4-(5-(trifluoromethyl)pyridin-2-yl)piperazin-1-yl)methyl)pyridin-2-yl) urea] | < 33 | 
< 300 | < 100 | < 33 | CNC(=O)c1ccc(N2CCN(Cc3ccnc(NC(=O)NCC(F)F)c3)CC2)c(C)n1 [Compound 262, 5-(4-((2-(3-(2,2-difluoroethyl)ureido)pyridin-4-yl)methyl)piperazin-1-yl)-N,6-dimethylpicolinamide] | < 33 | 
< 300 | < 100 | < 33 | CCNC(=O)Nc1ncnc(CN2CCN(c3ccc(C(=O)NC)nc3F)CC2)c1F [Compound 278, 5-(4-((6-(3-ethylureido)-5-fluoropyrimidin-4-yl)methyl)piperazin-1-yl)-6-fluoro-N-methylpicolinamide] | < 33 | 
< 300 | < 100 | < 33 | CCNC(=O)Nc1cc(CN2CCN(c3ccc(C(=O)NC)nc3F)CC2)ccn1 [Compound 9, 5-(4-((2-(3-ethylureido)pyridin-4-yl)methyl)piperazin-1-yl)-6-fluoro-N-methylpicolinamide] | < 33 | 
300 to 3000 | < 100 | < 33 | CNC(=O)c1ccc(N2CCN(Cc3ccnc(NC(=O)NC(C)C)c3)CC2)c(C)n1 [Compound 259, 5-(4-((2-(3-isopropylureido)pyridin-4-yl)methyl)piperazin-1-yl)-N,6-dimethylpicolinamide] | < 33 | 
< 300 | < 100 | < 33 | CCNC(=O)Nc1nccc(CN2CCN(c3ccc(C(=O)NC)nc3F)CC2)c1F [Compound 81, 5-(4-((2-(3-ethylureido)-3-fluoropyridin-4-yl)methyl)piperazin-1-yl)-6-fluoro-N-methylpicolinamide] | < 33 | 
< 300 | < 100 | < 33 | CCNC(=O)Nc1cc(CN2CCN(c3ccc(C#N)cn3)CC2)ccn1 [Compound 263, 1-(4-((4-(5-cyanopyridin-2-yl)piperazin-1-yl)methyl)pyridin-2-yl)-3-ethylurea] | < 33 | 
< 300 | < 100 | < 33 | CCNC(=O)Nc1cc(CN2CCN(c3ccc(C#N)cn3)CC2)ncn1 [Compound 275, 1-(6-((4-(5-cyanopyridin-2-yl)piperazin-1-yl)methyl)pyrimidin-4-yl)-3-ethylurea] | < 33 | 

SMILES | IC50 [1] [nM] | IC50 [2] [nM] | inhibition at 10 µM [3, 5] [%] | inhibition at 10 µM [4] [%] | inhibition at 10 µM [3] [%]
CNC(=O)Nc1cc(CN2CCN(c3ccc(C(=O)NC)nc3C)CC2)ccn1 [Compound 42, N,6-dimethyl-5-(4-((2-(3-methylureido)pyridin-4-yl)methyl)piperazin-1-yl)picolinamide trifluoroacetate] | < 300 | < 100 |  | < 33 | < 33
CCNC(=O)Nc1nccc(CN2CCN(c3ccc(C(=O)NC)nc3C)CC2)c1C [Compound 260, 5-(4-((2-(3-ethylureido)-3-methylpyridin-4-yl)methyl)piperazin-1-yl)-N,6-dimethylpicolinamide hemiformate] | 300 to 3000 | < 100 |  | < 33 | < 33
CCNC(=O)Nc1cc(CN2CCN(c3ccc(-c4ncc[nH]4)nc3C)CC2)ccn1 [Compound 272, 1-(4-((4-(6-(1H-imidazol-2-yl)-2-methylpyridin-3-yl)piperazin-1-yl)methyl)pyridin-2-yl)-3-ethylurea formate] | < 300 | < 100 |  | < 33 | < 33
CCNC(=O)Nc1ncc(CN2CCN(c3ccc(C(=O)NC)nc3C)CC2)s1 [Compound 242, 5-(4-((2-(3-ethylureido)thiazol-5-yl)methyl)piperazin-1-yl)-N,6-dimethylpicolinamide trifluoroacetate] | 300 to 3000 | < 100 |  | < 33 | < 33

— US20240343710A1, “HETEROCYCLIC COMPOUNDS AND METHODS OF USE THEREOF” (1cBio, Inc., priority 2023, published 2024)
